Where only a bound is given, the exact number is not on record here.

Holding throughout (assay type): functional
Experiment [1] deals with Nilaparvata lugens. Description: In vivo insecticidal activity against fifth-instar larval stage of Nilaparvata lugens (brown planthopper) in second semester rice seedlings assessed as insect mortality at 10 mg/L treated for 5 secs before larval infestation measured after 72 hr.
Experiment [2] has as its system Nilaparvata lugens. Description: In vivo insecticidal activity against fifth-instar larval stage of Nilaparvata lugens (brown planthopper) in second semester rice seedlings assessed as insect mortality at 100 mg/L treated for 5 secs before larval infestation measured after 72 hr.
Experiment [3] has as its system Nilaparvata lugens. Description: In vivo insecticidal activity against fifth-instar larval stage of Nilaparvata lugens (brown planthopper) in second semester rice seedlings assessed as insect mortality at 500 mg/L treated for 5 secs before larval infestation measured after 72 hr.

`CCOC(=O)CN1CC([N+](=O)[O-])=C(N(CC)Cc2ccc(Cl)nc2)N(C)C1`: the mortality at 10 µg/mL in experiment [1] was not below 90%. Moreover, the mortality at 100 µg/mL in experiment [2] was determined as 100%. Further, the mortality at 500 µg/mL in experiment [3] was found to be 100%.

Take `CCN(Cc1ccc(Cl)nc1)C1=C([N+](=O)[O-])CN(Cc2ccc(Cl)nc2)CN1C`: the mortality at 10 µg/mL in experiment [1] was not below 80%. In experiment [2], the mortality at 100 µg/mL is 100%. Moreover, the mortality at 500 µg/mL in experiment [3] was determined as 100%.

As for `CCN(Cc1ccc(Cl)nc1)C1=C([N+](=O)[O-])CN(CCc2ccccc2)CN1C`, the mortality at 10 µg/mL in experiment [1] is not below 80%. Also, the mortality at 100 µg/mL in experiment [2] is 100%. Besides, in experiment [3], the mortality at 500 µg/mL came to 100%.

As to `CCN(Cc1ccc(Cl)nc1)C1=C([N+](=O)[O-])CN(C2CCCCC2)CN1C`, in experiment [1], the mortality at 10 µg/mL was not below 60%. The mortality at 100 µg/mL in experiment [2] was not below 80%. In addition, the mortality at 500 µg/mL in experiment [3] was not below 90%.

Take `CCN(Cc1ccc(Cl)nc1)C1=C([N+](=O)[O-])CN(c2ccccc2)CN1C`: the mortality at 10 µg/mL in experiment [1] is not below 70%. Moreover, in experiment [2], the mortality at 100 µg/mL was not below 90%. For the same compound, in experiment [3], the mortality at 500 µg/mL amounted to 100%.

Regarding `CCN(Cc1ccc(Cl)nc1)C1=C([N+](=O)[O-])CN(c2ccc(F)cc2)CN1C`, in experiment [1], the mortality at 10 µg/mL is not below 80%. For the same compound, the mortality at 100 µg/mL in experiment [2] was 100%. Also, the mortality at 500 µg/mL in experiment [3] was 100%.

As for `CCN(Cc1ccc(Cl)nc1)C1=C([N+](=O)[O-])CN(c2ccccc2OC)CN1C`, in experiment [1], the mortality at 10 µg/mL was not below 60%. In addition, the mortality at 100 µg/mL in experiment [2] is 100%. Further, in experiment [3], the mortality at 500 µg/mL worked out at 100%.

Regarding `CCN(Cc1ccc(Cl)nc1)C1=C([N+](=O)[O-])CN(Cc2ccccc2)CN1C`, in experiment [1], the mortality at 10 µg/mL is not below 90%. Also, the mortality at 100 µg/mL in experiment [2] is 100%. In addition, the mortality at 500 µg/mL in experiment [3] turned out to be 100%.

With `CCN(Cc1ccc(Cl)nc1)C1=C([N+](=O)[O-])CN(Cc2ccc(C)cc2)CN1C`, the mortality at 10 µg/mL in experiment [1] was not below 50%. In addition, the mortality at 100 µg/mL in experiment [2] was not below 70%. In experiment [3], the mortality at 500 µg/mL came out at 100%.

In the case of `CCN(Cc1ccc(Cl)nc1)C1=C([N+](=O)[O-])CN(Cc2ccc(OC)cc2)CN1C`, in experiment [2], the mortality at 100 µg/mL was not below 50%. Besides, the mortality at 500 µg/mL in experiment [3] is not below 90%.

Take `CCN(Cc1ccc(Cl)nc1)C1=C([N+](=O)[O-])CN(Cc2ccccn2)CN1C`: the mortality at 10 µg/mL in experiment [1] was not below 70%. In experiment [2], the mortality at 100 µg/mL is not below 80%. Further, the mortality at 500 µg/mL in experiment [3] was determined as 100%.

In the case of `CCOC(=O)C(CC(C)C)N1CC([N+](=O)[O-])=C(N(CC)Cc2ccc(Cl)nc2)N(C)C1` (racemic), in experiment [1], the mortality at 10 µg/mL is less than 50%. Also, the mortality at 100 µg/mL in experiment [2] was not below 50%. In addition, in experiment [3], the mortality at 500 µg/mL was not below 70%.

Regarding `CCOC(=O)C(Cc1ccccc1)N1CC([N+](=O)[O-])=C(N(CC)Cc2ccc(Cl)nc2)N(C)C1` (racemic), in experiment [1], the mortality at 10 µg/mL was not below 60%. In experiment [2], the mortality at 100 µg/mL is not below 70%. Besides, the mortality at 500 µg/mL in experiment [3] is not below 80%.

Turning to `CCN(Cc1ccc(Cl)nc1)C1=C([N+](=O)[O-])CN(C(C)c2ccc(C)cc2)CN1C` (racemic), the mortality at 10 µg/mL in experiment [1] was not below 70%. The mortality at 100 µg/mL in experiment [2] is not below 80%. Besides, the mortality at 500 µg/mL in experiment [3] was not below 90%.

`CCN(Cc1ccc(Cl)nc1)C1=C([N+](=O)[O-])CN(C(C)c2ccccc2)CN1C` (single isomer, unassigned; (+)): the mortality at 10 µg/mL in experiment [1] was not below 80%. In addition, the mortality at 100 µg/mL in experiment [2] is 100%. The mortality at 500 µg/mL in experiment [3] worked out at 100%.

For the compound `CCN(Cc1ccc(Cl)nc1)/C(=C/[N+](=O)[O-])NC` [NITENPYRAM], the mortality at 10 µg/mL in experiment [1] was 100%. Besides, the mortality at 100 µg/mL in experiment [2] was found to be 100%. In addition, in experiment [3], the mortality at 500 µg/mL worked out at 100%.

The values are drawn from ChEMBL document CHEMBL3045685, “Discovery of bis-aromatic ring neonicotinoid analogues fixed as cis-configuration: Synthesis, insecticidal activities, and molecular docking studies” (2010).
